Test results taken from patent US20080213252A1, “METHODS OF TREATING ITCH” (priority 2007, published 2008).
Where no end group is shown, it is not given here.

How the values were obtained:
[1] = target: T1, mucunain (Mucuna pruriens, UniProt B2LSD2); experiment: Chromogenic substrate assay, inhibition of mucunain by E64; type: biochemical, M. pruriens; conditions: native mucunain 0.9 μM, recombinant mucunain 2.7 μM
T1 construct: made in house; host or cells: E. coli ER2566 (pTWIN1MUC1300) for recombinant mucunain; native mucunain extracted from M. pruriens spicules
From the text: Papain served as a control cysteine protease.

[2] = system: PAR4; experiment: PAR activation by cytoplasmic calcium release, ratiometric Fura-2 imaging, PAR4 transfected HeLa cells; type: cell-based, human; conditions: for calcium influx in PAR4 transfected HeLa cells: Fura-2 340:380 ratiometric imaging
Procedure: PAR activation observed by cytoplasmic calcium release—The four human PAR cDNAs were obtained from commercial sources and cloned into the pcDNA3.1 (−) vector (Invitrogen). HeLa cells were transfected with 10 μg of vector cDNA using Lipofectamine 2000 (Invitrogen) and cultured for two days in 96-well glass bottom plates at 30,000 cells/well. Cells were loaded with Fura-2 as follows. The medium was aspirated and replaced with 100 μl of complete DMEM containing 2 μM Fura-2 (Invitrogen) and kept at room temperature in the dark for 1 hr. The medium was again aspirated and each well received 90 μl of HEPES buffered saline (20 mM HEPES, 115 mM NaCl, 5.4 mM KCl, 2 mM CaCl2, 0.8 mM MgCl2, 13.8 mM glucose, pH 7.4). Plates were observed using a Zeiss Axiovert 200M microscope equipped with a filter wheel for monitoring excitation at 340 and 380 nm. Axiovision software, version 4.6 was used to analyze ratiometric calcium imaging of the cells. Ten μl of protease was applied approximately 20 seconds after the start of excitation. Images were taken every 5 seconds, beginning at time zero, for 3 minutes. The software was used to analyze the 37 images taken during each 3-minute period.

[3] = system: skin of volunteers; experiment: Psychophysics: itch sensation after insertion of native or reconstituted cowhage spicules into skin; type: in vivo; conditions: human volunteers; for blocking of itch and other sensations evoked by mucunain-containing spicules: E64 added during reconstitution of spicules; for itch evoked by substance loaded into inactivated spicules: autoclaved spicules soaked in the substance and dried; for itch evoked by PAR4 peptide agonist incubated with inactivated spicules: spicules incubated with peptide at 10 mM
Procedure: Reconstitution of spicules—Native spicules were inactivated by autoclaving for 1 hour and reconstituted with native and recombinant mucunains in the presence or absence of cysteine protease inhibitor, E64. Typically, 50 mg of inactivated spicules were mixed with 0.4 ml of 28 μM mucunain in a 2 ml microfuge tube, vortexed, and dried in a Speed-vac for 2 hours at room temperature. These spicules were then considered as ‘reconstituted’ with the protease alone. Spicules prepared in a similar manner but with E64 added at twice the concentration of mucunain, are considered reconstituted with the protease and the inhibitor.
Psychophysics—These protocols were approved by the Yale University Human Investigation Committee. A row of 10 cowhage spicules were lightly pasted to the flattened end of a Weck-Cel surgical strip, spaced at 1 mm, and applied parallel to the surface of the skin at the mid-volar forearm. […] Every 30 sec, subjects rated the magnitude of each of three qualities of sensation: Itch, pricking/stinging, and burning using the Generalized Labeled Magnitude Scale (Bartoshuk et al. 2004) that employs appropriately placed intensity descriptors of “none”, “barely detectable”, “weak”, “moderate”, “strong”, “very strong” and, at the top of the scale, “the strongest sensation imaginable.” Voltages derived from each subject's movements of a computer mouse that controlled a cursor on a visual representation of this scale were converted to numbers between 0 and 100 and plotted for each quality at successive intervals of 30 s up to 20 min after the insertion of cowhage. Each of nine subjects received, in separate tests, five types of cowhage spicules: native cowhage spicules, heat-inactivated spicules that had been soaked in a solution of cowhage extract containing E64, or the same but without E64, and heat-inactivated spicules that had been previously soaked in a solution of recombinant mucunain containing E64, or the same but without E64. The subject and experimenter were blinded as to the type of spicule administered.
The sensory effects of mucunain was further analyzed. A method of introducing mucunain into the skin of volunteers that would mimic the approach associated with the spicules was developed. Such a method would decrease or eliminate the pain associated with using conventional needles as such nociception might interfere with the sensation of itch. Spicules are inactivated when autoclaved but appear to maintain their physical structure. Inactivated spicules were soaked in a solution containing native or recombinant mucunain and then dried. One gram of fresh spicules was stirred for one hour at 4° C. with 20 ml of 0.1 M potassium phosphate buffer (pH 4.8) and 0.9% NaCl and the liquid removed by filtration through cheesecloth. The spicules were teased from the cheesecloth and autoclaved under dry heat for 30 minutes. The mucuna extract was passed through molecular filters to remove components with molecular weights of less than 9 kD. 50 mg of the inactivated, dried spicules were then soaked in 0.05 ml of the filtered extract containing 0.07 mg of cysteine protease (as determined by non-interfering protein assay) with or without 3.5 micrograms of E-64. The spicules were subsequently dried in a Speed-Vac for 2 hours. These spicules were considered ‘reconstituted’ with one batch containing the cysteine protease and its inhibitor and another batch, the protease alone. An analogous approach was used to load spicules with papain or histamine.

T1 sequence (B2LSD2 99-430): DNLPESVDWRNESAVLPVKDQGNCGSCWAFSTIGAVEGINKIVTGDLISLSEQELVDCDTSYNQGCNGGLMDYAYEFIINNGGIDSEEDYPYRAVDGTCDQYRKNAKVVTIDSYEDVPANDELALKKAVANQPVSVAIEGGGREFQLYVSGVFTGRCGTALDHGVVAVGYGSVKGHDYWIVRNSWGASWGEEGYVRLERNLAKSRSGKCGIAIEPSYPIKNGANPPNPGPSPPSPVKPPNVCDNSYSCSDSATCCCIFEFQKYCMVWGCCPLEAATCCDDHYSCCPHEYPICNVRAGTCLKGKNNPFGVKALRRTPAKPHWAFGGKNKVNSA

Compound	itch evoked by substance loaded into inactivated spicules [3]	calcium influx in PAR4 transfected HeLa cells [2]	itch evoked by PAR4 peptide agonist incubated with inactivated spicules [3]	further results
CC(C)C[C@H](NC(=O)[C@H]1O[C@@H]1C(=O)O)C(=O)NCCCCNC(=N)N (relative stereo) [E64, 1-[N-[(L-3-trans-carboxyoxirane-2-carbonyl)-L-leucyl]amino]-4-guanidinobutane]	–	–	–	blocking of Z-FR-pNA cleavage by mucunain [1]: blocked; blocking of protease-induced PAR4 activation ([2]; native mucunain, recombinant mucunain and papain in the presence of E64): blocked; blocking of itch and other sensations evoked by mucunain-containing spicules [3]: blocked all sensations; blocking of itch and other sensations evoked by mucunain-containing spicules ([3]; listed as E-64): effective in preventing itch
NCCc1c[nH]cn1 [histamine]	produced itch	–	–	–
AYPGKF-NH2	–	induced calcium influx	elicited itch	–
GYPGKF-NH2 [ID; No. 28]	–	–	elicited itch	–
bromelain	produced itch	induced calcium influx	–	–
ficin	–	induced calcium influx	–	–
